PubChem BioAssay AID1259408 (Genetic Toxicology Data Bank (GENE-TOX), 2018)
The source made the active and inactive calls. No rule for the calls is given here.

Tested on: GENE-TOX genotoxicity assays, various organisms and cells
Test: GENE-TOX mutagenicity studies
[1] = Species/Cell Type: Drosophila melanogaster, Assay Type: Sex-linked recessive lethal gene mutation, Assay Code: SRL+, Evaluation Type: Evaluation A (Pre-1980)
[2] = Species/Cell Type: Escherichia coli polA (W3119 vs P3478), Assay Type: Rec-assay, DNA effects (bacterial DNA repair), Assay Code: RE1+, Evaluation Type: Evaluation A (Pre-1980)
[3] = Species/Cell Type: Salmonella typhimurium (one or more of the five standard strains: TA98, TA100, TA1535, TA1537, and TA1538), Assay Type: Histidine reverse gene mutation, Ames assay, Assay Code: SAL+, Evaluation Type: Evaluation A (Pre-1980)
[4] = Species/Cell Type: Human lymphocytes, Assay Type: Sister-chromatid exchange (SCE) in vitro, Assay Code: SCLT, Evaluation Type: Evaluation B (Post-1980)
[5] = Species/Cell Type: Human, Assay Type: Sister-chromatid exchange (SCE) in vitro, Assay Code: SC1T, Evaluation Type: Evaluation B (Post-1980)
[6] = Species/Cell Type: Mouse, Sex: Male, Assay Type: Sperm morphology, Assay Code: SPI-, Evaluation Type: Evaluation A (Pre-1980)
[7] = Species/Cell Type: Arabidopsis species, Assay Type: Gene mutation, Assay Code: ARM+, Evaluation Type: Evaluation A (Pre-1980)

CCOC(=O)N(C)N=O
mutagenic call (Species/Cell Type: Arabidopsis species, Assay Type: Gene mutation, Assay Code: ARM+D, Dose Response: With dose response, Evaluation Type: Evaluation A (Pre-1980)): active; positive
mutagenic call (Species/Cell Type: Bacillus subtilis (H17 vs M45T), Assay Type: Rec-assay, spot test, DNA effects (bacterial DNA repair), Assay Code: REX+, Evaluation Type: Evaluation A (Pre-1980)): active; positive
mutagenic call [1]: active; positive
mutagenic call (Species/Cell Type: Drosophila melanogaster, Sex: Male, Assay Type: Heritable translocation test, chromosome aberrations, Assay Code: DHTT, Evaluation Type: Evaluation A (Pre-1980)): no conclusion
mutagenic call [2]: active; positive
mutagenic call (Species/Cell Type: Hordeum vulgare (barley), Assay Type: Chromosome aberrations, Assay Code: HOC+D, Dose Response: With dose response, Evaluation Type: Evaluation A (Pre-1980)): active; positive
mutagenic call (Species/Cell Type: Hordeum vulgare (barley), Assay Type: Gene mutation, Assay Code: HOM+, Evaluation Type: Evaluation A (Pre-1980)): active; positive
call (Species/Cell Type: Nonhuman, Assay Type: In vivo carcinogenicity studies, Assay Code: CCG+, Evaluation Type: Evaluation A (Pre-1980)): active; positive
mutagenic call (Species/Cell Type: Saccharomyces cerevisiae, Assay Type: Forward gene mutation, Assay Code: YEF+, Evaluation Type: Evaluation A (Pre-1980)): active; positive
mutagenic call (Species/Cell Type: Saccharomyces cerevisiae, Assay Type: Mitotic recombination or gene conversion, Assay Code: YEC+, Evaluation Type: Evaluation A (Pre-1980)): active; positive
mutagenic call (Species/Cell Type: Saccharomyces cerevisiae, Assay Type: Mitotic recombination or gene conversion, Assay Code: YEH+, Evaluation Type: Evaluation A (Pre-1980)): active; positive
mutagenic call [3]: active; positive
mutagenic call (Species/Cell Type: Schizosaccharomyces pombe, Assay Type: Reverse gene mutation, Assay Code: YEZ+, Evaluation Type: Evaluation A (Pre-1980)): active; positive

OCc1ccco1
mutagenic call [4]: no conclusion
mutagenic call [5]: no conclusion

CN1CCN(CCCN2c3ccccc3S(=O)c3ccccc32)CC1
mutagenic call [4]: no conclusion
mutagenic call [5]: no conclusion

O=C[C@H](O)[C@@H](O)[C@H](O)[C@H](O)CO
mutagenic call (Species/Cell Type: Mammalian polychromatic erythrocytes, Assay Type: Micronucleus test, chromosome aberrations, Assay Code: MNTT, Evaluation Type: Evaluation A (Pre-1980)): no conclusion
mutagenic call [6]: inactive; negative

CCCCOc1ccc2nc3cc(Cl)ccc3c(NCCCN(CC)CCCl)c2n1
mutagenic call (Species/Cell Type: Chinese hamster ovary (CHO) cells, Assay Type: Forward gene mutation at the HPRT locus, Assay Code: CHO+, Evaluation Type: Evaluation B (Post-1980)): active; positive

Cc1c2c(c(CO)c3c1ccc1ccccc13)C=C[C@H](O)[C@H]2O
mutagenic call (Species/Cell Type: Chinese hamster lung (V79) cells, Assay Type: Forward gene mutation at the HPRT or ouabain locus, Assay Code: V79-*, Activation: With metabolic activation, Evaluation Type: Evaluation A (Pre-1980)): inactive; negative

Cc1cc(=O)oc2ccccc12
mutagenic call (Species/Cell Type: Allium cepa, Assay Type: Chromosome aberrations, Assay Code: ALC+, Evaluation Type: Evaluation A (Pre-1980)): active; positive

[As]
mutagenic call (Species/Cell Type: Human lymphocytes, Assay Type: Sister-chromatid exchange (SCE) in vivo, Assay Code: SCY+, Evaluation Type: Evaluation B (Post-1980)): active; positive

NC(=S)c1ccccc1
mutagenic call (Species/Cell Type: Mammalian polychromatic erythrocytes, Assay Type: Micronucleus test, chromosome aberrations, Assay Code: MNT+, Evaluation Type: Evaluation B (Post-1980)): active; positive

CS(=O)(=O)OCCCl
mutagenic call [7]: active; positive
mutagenic call [1]: active; positive
mutagenic call (Species/Cell Type: Drosophila melanogaster, Sex: Male, Assay Type: Heritable translocation test, chromosome aberrations, Assay Code: DHT+, Evaluation Type: Evaluation A (Pre-1980)): active; positive
mutagenic call (Species/Cell Type: Vicia faba, Assay Type: Chromosome aberrations, Assay Code: VIC+D, Dose Response: With dose response, Evaluation Type: Evaluation A (Pre-1980)): active; positive

OCCBr
mutagenic call [2]: active; positive
mutagenic call [6]: inactive; negative
mutagenic call [3]: active; positive
mutagenic call (Species/Cell Type: Tradescantia species, Assay Type: Gene mutation, Assay Code: TRM+D, Dose Response: With dose response, Evaluation Type: Evaluation A (Pre-1980)): active; positive

CNC(=O)N(C)N=O
mutagenic call [7]: active; positive
mutagenic call [3]: active; positive
mutagenic call (Species/Cell Type: Zea mays (corn), Assay Type: Gene mutation, Assay Code: ZEM+D, Dose Response: With dose response, Evaluation Type: Evaluation A (Pre-1980)): active; positive

Clc1ccc(Br)cc1
mutagenic call (Species/Cell Type: Saccharomyces cerevisiae, Assay Type: Mitotic recombination or gene conversion, Assay Code: YEH-, Evaluation Type: Evaluation A (Pre-1980)): inactive; negative
mutagenic call (Species/Cell Type: Salmonella typhimurium (one or more of the five standard strains: TA98, TA100, TA1535, TA1537, and TA1538), Assay Type: Histidine reverse gene mutation, Ames assay, Assay Code: SAL-, Evaluation Type: Evaluation A (Pre-1980)): inactive; negative
